Source: PMC8315004, “Discovery of Small-Molecule Inhibitors of SARS-CoV-2 Proteins Using a Computational and Experimental Pipeline” (Frontiers in Molecular Biosciences, 2021)
“And” between values parts separate entries of the source, which are not always exact repeats. Equal entries are not always repeated. Where two headings read alike, the source gives them in different places.

Legend:
SARS-CoV-2 M^pro [1] = biological target: T1, SARS-CoV-2 M^pro (Severe acute respiratory syndrome coronavirus 2, UniProt P0DTD1); experiment: biochemical; parameters: inhibition: dose or concentration left out as unconfirmed; conditions: for IC50: normalized FRET data, technical duplicates, end-point about 4 h, read-out: IC50 against Mpro, FRET values; for inhibition of the activity of Mpro in secondary screen: re-screen at 100 μM
[2] = biological target: ACE2-RBD binding (SARS-CoV-2 RBD / human ACE2-Fc) (Severe acute respiratory syndrome coronavirus 2, UniProt P0DTC2); experiment: biochemical; conditions: for RMAX of ACE2-RBD binding: RBD pre-treated with 50 μM compound, DMSO only 0.3044; for ACE2-RBD binding versus inhibitor concentration (in words): RBD pre-treated with increasing concentrations; for inhibition at 50 µM: pre-treatment with 50 μM compound, from Rmax with vs without compound
[3] = test system: SARS-CoV-2 expressing the mNeon reporter gene; experiment: microbe, parasite or virus in culture; type: cell-based; conditions: read-out: IC50 against SARS-CoV-2
in vitro = conditions: African green monkey
SARS-CoV-2 M^pro [4] = biological target: T1, SARS-CoV-2 M^pro; experiment: Mpro substrate cleavage by gel electrophoresis (SDS-PAGE) and densitometry; type: biochemical; conditions: normalized gel densitometry data (red values of Figure 2D); read-out: IC50 against Mpro, gel electrophoresis and densitometry
Mpro [5] = conditions: slightly shorter fluorogenic substrate; ref Li et al., 2020; read-out: IC50 as Mpro inhibitor (literature); cited from earlier work
Mpro [6] = conditions: cited from earlier work
VSV-SARS2 = experiment: microbe, parasite or virus in culture; type: cell-based; conditions: for inhibition at 10 µM: read-out: inhibition of VSV-SARS2 infection (efficacy); for IC50: read-out: IC50 against VSV-SARS2
[7] = initial screen, Table S4, read-out: Normalized Percent FRET inhibition
[8] = Severe acute respiratory syndrome coronavirus 2, Vero, 18 h
[9] = Vesicular stomatitis virus, Vero
[10] = initial screen, 100 μM of drug, Table S4

COc1ccc(-c2ccc3cc(C(=O)O)ccc3c2)cc1C12CC3CC(CC(C3)C1)C2 [Adapalene]
inhibition (SARS-CoV-2 M^pro [1]; [7]): 0.236% | RMAX of ACE2-RBD binding [2]: 0.2322 | ACE2-RBD binding versus inhibitor concentration (in words) [2]: concentration-dependent decrease | inhibition at 50 µM [2]: 23.8% | IC50 [3, 8]: ~10 µM | IC50 [3]: 9.6 µM | CC50 (in vitro): 60.7 µM

CCOc1nc2cccc(C(=O)OC(C)OC(=O)OC3CCCCC3)c2n1Cc1ccc(-c2ccccc2-c2nnn[nH]2)cc1 (centres unmarked) [Candesartan Cilexetil]
inhibition (SARS-CoV-2 M^pro [1]; [7]): 153% | IC50 (SARS-CoV-2 M^pro [1]): ~67 µM and 67.4 µM | inhibition of the activity of Mpro in secondary screen (SARS-CoV-2 M^pro [1]): completely inhibit | IC50 (SARS-CoV-2 M^pro [4]): 77.1 µM | IC50 [3, 8]: ~10 µM | IC50 [3]: 10.4 µM | IC50 (Mpro [5]): 2.8 µM | CC50 (in vitro): > 100 µM

O=c1c2ccccc2[se]n1-c1ccccc1 [Ebselen]
inhibition at 100 µM (SARS-CoV-2 M^pro [1]; read-out: Normalized Percent FRET inhibition): 117% | Mpro inhibitor potency (literature, in words) (Mpro [6]): low micromolar

Cc1cc2nc3c(=O)[nH]c(=O)nc-3n(C[C@H](O)[C@H](O)[C@H](O)COP(=O)(O)OP(=O)(O)OC[C@H]3O[C@@H](n4cnc5c(N)ncnc54)[C@H](O)[C@@H]3O)c2cc1C [Flavin Adenine Dinucleotide Disodium]
inhibition (SARS-CoV-2 M^pro [1]; [7]): 149% | IC50 (SARS-CoV-2 M^pro [1]): 42.5 µM | inhibition of the activity of Mpro in secondary screen (SARS-CoV-2 M^pro [1]): completely inhibit | IC50 (SARS-CoV-2 M^pro [4]): > 100 µM

C#C[C@]1(O)CC[C@H]2[C@@H]3CCC4=CC(=O)CCC4=C3C=C[C@@]21CC [Gestrinone]
RMAX of ACE2-RBD binding [2]: 0.2366 | ACE2-RBD binding versus inhibitor concentration (in words) [2]: concentration-dependent decrease | inhibition at 50 µM [2]: 22%

C#Cc1cccc(Nc2ncnc3cc4c(cc23)OCCOCCOCCO4)c1 [Icotinib]
inhibition (SARS-CoV-2 M^pro [1]; [7]): -0.628% | RMAX of ACE2-RBD binding [2]: 0.2406 | ACE2-RBD binding versus inhibitor concentration (in words) [2]: concentration-dependent decrease | inhibition at 50 µM [2]: 21%

Cc1ccc(NC(=O)c2ccc(CN3CCN(C)CC3)cc2)cc1Nc1nccc(-c2cccnc2)n1 [Imatinib]
inhibition at 10 µM (VSV-SARS2; [9]): ≥ 50%

CS(=O)(=O)CCNCc1ccc(-c2ccc3ncnc(Nc4ccc(OCc5cccc(F)c5)c(Cl)c4)c3c2)o1 [Lapatinib]
RMAX of ACE2-RBD binding [2]: 0.2344 | ACE2-RBD binding versus inhibitor concentration (in words) [2]: concentration-dependent decrease | inhibition at 50 µM [2]: 23% | IC50 (VSV-SARS2; [9]): < 10 µM | inhibition at 10 µM (VSV-SARS2; [9]): ≥ 50% | IC50 (VSV-SARS2): 7.1 µM | IC50 [3, 8]: 31.1 µM | CC50 (in vitro): 69.6 µM

Cc1ccc(Nc2nccc(N(C)c3ccc4c(C)n(C)nc4c3)n2)cc1S(N)(=O)=O [Pazopanib]
inhibition (SARS-CoV-2 M^pro [1]; [7]): -0.955%

CO[C@H]1C[C@H](O[C@H]2CC[C@]3(C)[C@H]4CC[C@]5(C)[C@@H](C6=CC(=O)OC6)CC[C@]5(O)[C@@H]4CC[C@]3(O)C2)O[C@H](C)[C@H]1O[C@@H]1O[C@H](CO)[C@@H](O)[C@H](O)[C@H]1O [Periplocin]
Normalized Percent FRET inhibition (SARS-CoV-2 M^pro [1]; [10]): -1.536%

COc1ccc2nc3cc(Cl)ccc3c(Nc3cc(CN4CCCC4)c(O)c(CN4CCCC4)c3)c2n1 [Pyronaridine]
inhibition (SARS-CoV-2 M^pro [1]; [7]): -8.33%

CNC(=O)c1cnn(-c2nc(N)c3ncn([C@@H]4O[C@H](CO)[C@@H](O)[C@H]4O)c3n2)c1 [Regadenoson]
Normalized Percent FRET inhibition (SARS-CoV-2 M^pro [1]; [10]): -0.1877%

Cc1cc(/C=C/C#N)cc(C)c1Nc1ccnc(Nc2ccc(C#N)cc2)n1 [Rilpivirine]
inhibition (SARS-CoV-2 M^pro [1]; [7]): 5.87%

Cc1nc2n(c(=O)c1CCN1CCC(c3noc4cc(F)ccc34)CC1)CCCC2 [Risperidal]
Normalized Percent FRET inhibition (SARS-CoV-2 M^pro [1]; 100 µM): -1.672

C=CC[N+]1([C@H]2C[C@H]3[C@@H]4CC[C@H]5C[C@H](O)[C@@H](N6CCOCC6)C[C@]5(C)[C@H]4CC[C@]3(C)[C@H]2OC(C)=O)CCCC1 [Rocuronium bromide]
inhibition (SARS-CoV-2 M^pro [1]; [7]): 11.3%

Cc1cncc(CN2CCC(=C3c4ccc(Cl)cc4CCc4cccnc43)CC2)c1.O=C(O)/C=C/C(=O)O [Rupatadine Fumarate]
Normalized Percent FRET inhibition (SARS-CoV-2 M^pro [1]; [10]): -2.415%

C[C@@H]1O[C@@H](OC[C@H]2O[C@@H](Oc3c(-c4ccc(O)c(O)c4)oc4cc(O)cc(O)c4c3=O)[C@H](O)[C@@H](O)[C@@H]2O)[C@H](O)[C@H](O)[C@H]1O [Rutin]
inhibition (SARS-CoV-2 M^pro [1]; [7]): -0.554%

CC(C)(C)NC(=O)[C@@H]1C[C@@H]2CCCC[C@@H]2CN1C[C@@H](O)[C@H](Cc1ccccc1)NC(=O)[C@H](CC(N)=O)NC(=O)c1ccc2ccccc2n1 [Saquinavir]
inhibition (SARS-CoV-2 M^pro [1]; [7]): -1.34%

COc1ccc2c(O[C@@H]3C[C@H]4C(=O)N[C@]5(C(=O)NS(=O)(=O)C6CC6)C[C@H]5/C=C\CCCCN(C)C(=O)[C@@H]4C3)cc(-c3nc(C(C)C)cs3)nc2c1C [Simeprevir]
inhibition (SARS-CoV-2 M^pro [1]; [7]): 72.9%

CC(C)OC(=O)[C@H](C)N[P@](=O)(OC[C@H]1O[C@@H](n2ccc(=O)[nH]c2=O)[C@](C)(F)[C@@H]1O)Oc1ccccc1 [Sofosbuvir]
inhibition (SARS-CoV-2 M^pro [1]; [7]): -0.4%

C=CC[C@@H]1/C=C(\C)C[C@H](C)C[C@H](OC)[C@H]2O[C@@](O)(C(=O)C(=O)N3CCCC[C@H]3C(=O)O[C@H](/C(C)=C/[C@@H]3CC[C@@H](O)[C@H](OC)C3)[C@H](C)[C@@H](O)CC1=O)[C@H](C)C[C@@H]2OC [Tacrolimus]
inhibition (SARS-CoV-2 M^pro [1]; [7]): -0.417%

Cc1nc(C)c2c(n1)N(Cc1ccc(-c3ccccc3-c3nnn[nH]3)cc1)C(=O)CC2 [Tasosartan]
inhibition (SARS-CoV-2 M^pro [1]; [7]): -1.96%

CN(C)[C@@H]1C(O)=C(C(N)=O)C(=O)[C@@]2(O)C(O)=C3C(=O)c4c(O)cccc4[C@@](C)(O)[C@H]3C[C@@H]12 [Tetracycline]
inhibition (SARS-CoV-2 M^pro [1]; [7]): 40.3% | IC50 (SARS-CoV-2 M^pro [1]): 20.8 µM | inhibition of the activity of Mpro in secondary screen (SARS-CoV-2 M^pro [1]): completely inhibit | IC50 (SARS-CoV-2 M^pro [4]): 38.2 µM

CN(C)c1cc(NC(=O)CNC(C)(C)C)c(O)c2c1C[C@H]1C[C@H]3[C@H](N(C)C)C(O)=C(C(N)=O)C(=O)[C@@]3(O)C(O)=C1C2=O [Tigecycline]
inhibition (SARS-CoV-2 M^pro [1]; [7]): 56.5% | IC50 (SARS-CoV-2 M^pro [1]): 21.5 µM and 20.5 µM | inhibition of the activity of Mpro in secondary screen (SARS-CoV-2 M^pro [1]): completely inhibit | IC50 (SARS-CoV-2 M^pro [4]): 29 µM

CC(=O)Nc1cccc(-n2c(=O)n(C3CC3)c(=O)c3c(Nc4ccc(I)cc4F)n(C)c(=O)c(C)c32)c1.C[S+](C)[O-] [Trametinib DMSO solvate]
Normalized Percent FRET inhibition (SARS-CoV-2 M^pro [1]; [10]): 1.516%

CC(=O)O[C@H]1C[C@@H]2CC[C@@H]3[C@H](CC[C@@]4(C)[C@H]3C[C@H]([N+]3(C)CCCCC3)[C@@H]4OC(C)=O)[C@@]2(C)C[C@@H]1N1CCCCC1 [Vecuronium bromide]
inhibition (SARS-CoV-2 M^pro [1]; [7]): 4.13%

CCOC(=O)N[C@@H]1CC[C@@H]2[C@@H](C1)C[C@H]1C(=O)O[C@H](C)[C@H]1[C@H]2/C=C/c1ccc(-c2cccc(F)c2)cn1 [Vorapaxar]
inhibition (SARS-CoV-2 M^pro [1]; [7]): -0.416%

COc1cc(C(=O)NS(=O)(=O)c2ccccc2C)ccc1Cc1cn(C)c2ccc(NC(=O)OC3CCCC3)cc12 [Zafirlukast]
inhibition (SARS-CoV-2 M^pro [1]; [7]): 3.83%

Eptifibatide acetate
Normalized Percent FRET inhibition (SARS-CoV-2 M^pro [1]; [10]): 2.056%

Ginkgolide C
Normalized Percent FRET inhibition (SARS-CoV-2 M^pro [1]; [10]): -0.7419%

Hyaluronic acid
Normalized Percent FRET inhibition (SARS-CoV-2 M^pro [1]; [10]): -2.844%

Ivermectin
Normalized Percent FRET inhibition (SARS-CoV-2 M^pro [1]; [10]): -0.9158%

Maraviroc
Normalized Percent FRET inhibition (SARS-CoV-2 M^pro [1]; [10]): -2.69%
